Test results published in patent US11738027B2, “MPO inhibitors for use in medicine” (AstraZeneca AB, priority 2017, dated 2023).

Assays:
human sperm = settings: 4 mM, 2-hour incubation, N=29, P<0.01
Description: A 10 mM stock solution of the drug was made up in 100% DMSO. This was then serially diluted to a working concentration of 3 μM using sEBSS as the diluent and stored at 4° C. The drug or vehicle was then added to the neutrophils and placed in a 37° C. water bath for 10 min. The neutrophils were then added to the sperm in sperm-safe 5 mL Polystyrene round bottom tubes (Falcon) at a ratio of about 1:3. Zymosan at a final concentration of 1 μg/ml was added to activate the neutrophils and incubated for 2 hours at 37° C.
Following the 2 h incubation with activated neutrophils, aliquots of 50 μL were taken from all 4 conditions and transferred into 1.5 mL Eppendorf tubes. H2O2 was used as a positive control. An extra aliquot for a secondary only control was taken from the sperm only tube. The cells (except the secondary only tube) were incubated for 0.5 h at 37° C. with an anti-malondialdehyde (MDA) antibody (ab27642, abcam, Cambridge) at a working ratio of 1:50 (Moazamian R, Polhemus A, Connaughton H, Fraser B, Whiting S, Gharagozloo P, Aitken R J. Mol Hum Reprod 2015; 21(6):502-15). […] The level of MDA staining in each condition was then assessed in 10,000 cells using a pre-validated flow cytometry program in a BD LSRFortessa cell analyser. Due to a technical error one sample was unable to be assessed using flow cytometry.

human MPO = molecular target: T1, human MPO (Homo sapiens, UniProt P05164); test: MPO inhibition; format: biochemical; settings: read-out: IC50, irreversible inhibitor of human MPO
T1 sequence (P05164 49-745): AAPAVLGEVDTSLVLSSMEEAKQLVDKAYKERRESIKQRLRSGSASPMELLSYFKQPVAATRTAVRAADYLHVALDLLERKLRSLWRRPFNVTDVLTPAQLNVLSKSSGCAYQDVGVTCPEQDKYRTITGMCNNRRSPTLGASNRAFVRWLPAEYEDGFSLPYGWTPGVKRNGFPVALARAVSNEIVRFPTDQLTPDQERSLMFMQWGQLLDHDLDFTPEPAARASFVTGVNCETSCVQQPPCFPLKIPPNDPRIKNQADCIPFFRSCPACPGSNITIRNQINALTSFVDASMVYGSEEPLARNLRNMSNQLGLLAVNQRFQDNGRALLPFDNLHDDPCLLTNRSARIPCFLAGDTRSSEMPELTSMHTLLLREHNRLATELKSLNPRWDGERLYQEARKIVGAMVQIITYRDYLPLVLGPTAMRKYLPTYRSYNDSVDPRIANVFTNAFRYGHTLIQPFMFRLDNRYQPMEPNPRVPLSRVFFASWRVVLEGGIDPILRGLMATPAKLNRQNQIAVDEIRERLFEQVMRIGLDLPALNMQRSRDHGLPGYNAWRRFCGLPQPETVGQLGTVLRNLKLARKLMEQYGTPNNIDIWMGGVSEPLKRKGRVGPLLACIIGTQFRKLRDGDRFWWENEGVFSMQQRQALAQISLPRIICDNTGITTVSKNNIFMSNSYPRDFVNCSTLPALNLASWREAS

[1] = system: isolated human neutrophils; test: PMA stimulated HOCl in isolated neutrophils; format: cell-based; settings: Neutrophil
[2] = system: human sperm with activated human neutrophils; test: Kremer penetration assay; format: cell-based; settings: 3 μM
Description: (§1) The neutrophils were then added to the sperm in sperm-safe 5 mL Polystyrene round bottom tubes (Falcon) at a ratio of about 1:3.
The Kremer penetration test assesses a sperm cell's ability to penetrate and swim through viscous media. This test is also known as the sperm-cervical mucus penetration test. A cervical mucus substitute was made up using 1% methyl cellulose dissolved in capacitating media. The solution was gassed in a 37° C. 5% CO2 incubator for 20 min. Then flat capillary tubes (Rectangle Boro Tubing, CM Scientific) were placed in the methyl cellulose solution for a further 20 min to allow the media to flow up the capillary tubes. After the 2 h incubation, 100 μL from each condition was aliquoted into a fresh sperm safe tube. One end of each tube was then blocked using plasticine and then one tube was placed open end first into each test condition. Each sperm safe tube containing a capillary tube was incubated 1 hour at 37° C. with 5% CO2. After 1 h, the capillary tubes were removed and the number of cells at 1 cm mark were counted manually. The results were expressed as a ratio to control (sperm only).

[3] = Phase 1 studies in healthy volunteers, adverse events; format: in vivo, human; settings: oral, single doses up to 1200 mg (1400 mg ER), multiple up to 325 mg TID (600 mg BID 10 days ER), 181 subjects
[4] = system: human sperm with activated human neutrophils; test: Sperm motility assessment (Hamilton-Thorn CASA) with activated neutrophils; format: cell-based; settings: 3 μM
Description: as §1
Sperm motility was assessed using the Hamilton-Thorn CASA system. For each condition, a total of 200 cells were counted in at least four different fields of view. Where a sample had very low motility at least 100 cells were counted. The motility parameters were assessed at the start of the co-incubation with neutrophils (time 0), after 2 h and after 24 h. Motility was expressed as a percentage different between time 0 and after 2 h and percentage difference after time 0 and after 24 h for each time point for each sample.

[5] = system: in situ zymosan activated peritoneum neutrophils; test: In vivo glutathione sulphonamide formation; parameters: species or system rat; settings: rats, plasma concentration of ~5 μM

SMILES	MDA staining versus the other conditions (human sperm)	IC50 (human MPO) [nM]	inhibition at 1 µM [1] [%]	patients with clinically-relevant beneficial effect ([2]; 29 patients evaluated)	sperm found at 1 cm versus vehicle ([2]; 2 h incubation, n=29, p=0.02)	further subjects showing a smaller improvement ([2]; of 29 patients)	subjects with clinically-relevant improvement in sperm penetration ([2]; of the 29 subjects)	drug-related adverse events [3]	absolute change in overall sperm motility from baseline to 2 h and 24 h ([4]; first 11 subjects, vs vehicle, two-tailed t-test P=0.09)	percentage differences between CASA measurements at time zero and after 24-hour incubation (motility, progressive, rapid, VAP, VSL, VCL, ALH) ([4]; n=29, vs vehicle, not statistically significant (P>0.1))	in vivo formation of glutathione sulphonamide [5]
OO [H2O2, hydrogen peroxide]	stained significantly more	–	–	–	–	–	–	–	–	–	–
O=c1[nH]c(=S)n(C[C@H]2CCCO2)c2nc[nH]c12 [AZD5904, 3-[[(2R)-tetrahydrofuran-2-yl]methyl]-2-thioxo-7H-purin-6-one]	–	140	> 90	over 50%	significantly more sperm	8	15	No overtly drug-related adverse event	statistical trend	positive trend	decreased
